The series in a line: Passive permeability and efflux ratio in Caco-2 cell monolayers. Type of series: in vitro ADME. Particulars: human, Caco-2, 5 μM, pH 7.4, 120 minutes; for Papp A→B at 120 min, 5 μM: apical to basolateral; for Papp B→A at 120 min, 5 μM: basolateral to apical. As for the experimental part:
Caco-2 cells (clone C2BBe1) were obtained from American Type Culture Collection (Manassas, VA). Cell monolayers were grown to confluence on collagen-coated, microporous membranes in 12-well assay plates. Details of the plates and their certification are shown below. The permeability assay buffer was Hanks' balanced salt solution containing 10 mM HEPES and 15 mM glucose at a pH of 7.4. The buffer in the receiver chamber also contained 1% bovine serum albumin. The dosing solution concentration was 5 μM of test article in the assay buffer. Cell monolayers were dosed on the apical side (A-to-B) or basolateral side (B-to-A) and incubated at 37° C. with 5% CO2 in a humidified incubator. Samples were taken from the donor and receiver chambers at 120 minutes. Each determination was performed in duplicate. The flux of lucifer yellow was also measured post-experimentally for each monolayer to ensure no damage was inflicted to the cell monolayers during the flux period. All samples were assayed by LC-MS/MS using electrospray ionization. The apparent permeability (Papp) and percent recovery were calculated as follows: Papp=(dCr/dt)×Vr/(A×CA) (1) Percent Recovery=100×((Vr×Cr^final)+(Vd×Cd^final))/(Vd×CN) (2), where, dCr/dt is the slope of the cumulative receiver concentration versus time in μM s^−1; Vr is the volume of the receiver compartment in cm^3; Vd is the volume of the donor compartment in cm^3; A is the area of the insert (1.13 cm^2 for 12-well); CA is the average of the nominal dosing concentration and the measured 120-minute donor concentration in μM; CN is the nominal concentration of the dosing solution in μM; Cr^final is the cumulative receiver concentration in μM at the end of the incubation period; Cd^final is the concentration of the donor in μM at the end of the incubation period. Efflux ratio (ER) is defined as Papp (B-to-A)/Papp (A-to-B).

Turning to `N#Cc1ccc(COc2cccc(C3CCN(Cc4nc5ccc(-c6nnn[nH]6)cc5n4C[C@@H]4CCO4)CC3)n2)c(F)c1` [Compound 8], the Papp A→B at 120 min, 5 μM worked out at 1.8 ×10⁻⁶ cm/s and the Papp B→A at 120 min, 5 μM worked out at 18.8 ×10⁻⁶ cm/s.
Regarding `N#Cc1ccc(COc2cccc(C3CCN(Cc4nc5ccc(-c6nc(=O)[nH]o6)cc5n4Cc4cncs4)CC3)n2)c(F)c1` [Compound 13, 3-fluoro-4-(((6-(1-((6-(3-oxo-2,3-dihydro-1,2,4-oxadiazol-5-yl)-1-(thiazol-5-ylmethyl)-1H-benzo[d]imidazol-2-yl)methyl)piperidin-4-yl)pyridin-2-yl)oxy)methyl)benzonitrile], the Papp A→B at 120 min, 5 μM was found to be 46.9 ×10⁻⁶ cm/s and the Papp B→A at 120 min, 5 μM came out at 51.1 ×10⁻⁶ cm/s.

Source of the values: patent US12024507B2, “Compounds as GLP-1R agonists” (Terns Pharmaceuticals, Inc., priority 2021, dated 2024).
